# Like-named read-outs stand apart in the source and are kept apart here.
# How the values were obtained:
# VcpR = assay: E. coli bioassay expressing VcpR (IPTG-inducible plasmid); format: cell-based, V. coralliilyticus; details: 25 μM PTSP
# Description: (§1) We hypothesized that there were several possible reasons for the observed difference in PTSP inhibition in the various Vibrio species, including but not limited to: 1) differences in LuxR-inhibitor interaction(s), 2) differences in diffusion of the inhibitor across the membranes, or 3) stability of the inhibitor in the cell and/or cell culture. To examine PTSP activity in a common strain background, we cloned the luxR gene from each Vibrio species into a plasmid under control of an IPTG-inducible promoter and assayed the effect of PTSP against these proteins in the E. coli bioassay. […] We conclude that the differences in PTSP activity in Vibrio species is due to differences in interaction between PTSP and the LuxR-type protein in each Vibrio.
# (§2) In E. coli assays expressing the five different LuxR-type proteins (luxR, smcR, opaR, vcpR, hapR), slight changes to the protocol were implemented. The luxR genes were cloned under control of the IPTG-inducible Ptac promoter in plasmid pMMB67EH-kanR. […] Strains expressing hapR or smcR required 50 μM IPTG to observe activation of the GFP reporter; IPTG was not added to strains expressing luxR, vcpR, or opaR.
# [1] = test system: PluxC-gfp reporter in V. coralliilyticus; assay: PluxC-gfp reporter in V. coralliilyticus strains
# OpaR = assay: E. coli bioassay expressing OpaR (IPTG-inducible plasmid); format: cell-based, V. parahaemolyticus; details: 25 μM PTSP
# Description: as §1, §2
# LuxR = LuxR (Vibrio harveyi, UniProt P21308); assay: EMSA DNA binding activity of LuxR; format: biochemical, V. campbellii; parameters: made in house; host or cells: E. coli BL21(DE3); details: saturating concentrations
# Chain of LuxR (P21308 whole entry, the tested form may be a part): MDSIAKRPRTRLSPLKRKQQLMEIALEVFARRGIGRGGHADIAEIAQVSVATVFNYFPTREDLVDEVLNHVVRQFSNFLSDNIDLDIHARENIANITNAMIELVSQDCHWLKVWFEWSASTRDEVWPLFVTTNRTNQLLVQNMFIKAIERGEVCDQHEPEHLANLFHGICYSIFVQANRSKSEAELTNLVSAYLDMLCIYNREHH
# Protocol: We noted that Qstatin and PTSP are both predicted to bind in the putative ligand binding pocket of SmcR. It is currently unknown how Qstatin allosterically affects DNA binding through its interactions in the ligand binding domain. […] We therefore also assessed the effect of sulfonamide PTSP on the DNA binding activity of LuxR and SmcR in vitro. […] (Kim et al., 2018).
# (§3) SmcR and LuxR were purified as described previously. EMSAs were conducted as described previously using oligonucleotides corresponding to the luxC and vvpE promoter sequences. ITC analysis was conducted using purified LuxR or His-tagged SmcR, each in gel-filtration buffer (25 mM Tris pH 7.5, 300 mM NaCl, 0.5 mM EDTA, 1 mM DTT, 2% DMSO). All molecules analyzed were diluted in the same buffer. The samples were degassed for 10 min by vacuum aspiration. Titrations were performed on a Nano-ITC (TA Instruments). […] Thermograms were analyzed using NanoAnalyze software with the independent binding model.
# V. vulnificus = assay: Growth of V. vulnificus with inhibitor; format: cell-based; details: high concentrations
# Description: (§4) Many sulfonamide-containing compounds are known to target the folate synthesis pathway in bacteria and inhibit growth (bacteriostatic), and thus these “sulfa drugs” have been used as broad-spectrum antibiotics for decades (Hammoudeh et al., 2013, Roland et al., 1979). […] We also tested the stability of the inhibitors in bacterial cultures and the timing of the inhibitory effect.
# V. campbellii LuxR = target: T1, V. campbellii LuxR (Vibrio harveyi, UniProt P21308); assay: E. coli dual-color bioassay (pKM699 LuxR, pJV064 reporter); format: cell-based
# T1 construct: expressed in transfected cells; host or cells: E. coli DH10B with pKM699 and reporter pJV064
# T1 sequence (P21308 whole entry): as the sequence (P21308 whole entry, the tested form may be a part) above
# Description: Previously, we developed a bioassay that consists of a dual-color fluorescent reporter plasmid that reports both LuxR activities: the luxCDABE promoter is activated by LuxR and drives expression of gfp, and the VIBHAR_05222 promoter is repressed by LuxR and drives expression of mCherry (van Kessel et al., 2013b) (FIG. 2A). We used this reporter plasmid in an E. coli strain that also contains a plasmid expressing LuxR from its native promoter.
# A bioassay was developed to monitor LuxR function that consists of a dual-color reporter plasmid (pJV064) that reports both activities: the luxCDABE promoter is activated by LuxR and drives expression of gfp, and the 05222 promoter is repressed by LuxR and drives expression of mCherry (van Kessel, Ulrich et al. 2013). This reporter plasmid was used in an E. coli strain that also contains a plasmid (pKM699) expressing LuxR from its native promoter. E. coli cultures containing these two plasmids were grown at 30° C. in LB medium with chloramphenicol (10 μg/ml) and tetracycline (10 μg/ml) to select for the two plasmids. Compounds were added to the cultures at a range of concentrations, and the cultures were incubated for 16 hours shaking at 30° C.
# The dual-promoter fluorescence reporter assays were performed using E. coli strain DH10B containing two plasmids: 1) plasmid pJV064 containing the PluxC fused to GFP and P05222fused to mCherry to assess LuxR transcriptional regulation, and 2) plasmid pKM699 expressing V. campbellii luxR under control of its native promoter or empty vector pLAFR2.
# V. campbellii = assay: Growth of V. campbellii with inhibitor; format: cell-based; details: high concentrations
# Description: as §4
# [2] = test system: V. coralliilyticus protease activity; assay: Protease assay (azocasein) in V. coralliilyticus; details: 2.5 μM PTSP vs DMSO
# SmcR = SmcR (Vibrio vulnificus, UniProt Q9L8G8); assay: ITC analysis of SmcR interaction with inhibitors; format: binding, V. vulnificus
# Chain of SmcR (Q9L8G8 entry or part of it): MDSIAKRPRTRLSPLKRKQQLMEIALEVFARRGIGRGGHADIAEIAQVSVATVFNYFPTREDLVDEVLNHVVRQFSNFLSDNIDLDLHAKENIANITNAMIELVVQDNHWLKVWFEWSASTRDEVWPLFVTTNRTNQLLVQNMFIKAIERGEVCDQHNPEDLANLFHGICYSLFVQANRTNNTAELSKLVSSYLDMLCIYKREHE
# Description: To test the validity of the modelling predictions for PTSP, we performed isothermal titration calorimetry (ITC) to determine the binding affinity of SmcR and LuxR for PTSP. […] We noted that PTSP binding to both LuxR and SmcR had lower entropy and enthalpy compared to SmcR binding to Qstatin. […] Thus, we conclude that the efficacy of PTSP inhibition in vivo in these two Vibrio species correlates to the binding affinity determined in vitro for these two proteins.
# as §3
compound,measurement,setting,value
O=S(=O)(c1cccs1)n1ccc(-c2ccccc2)n1 [Compound 10B],Inhibition of VcpR in E. coli bioassay,VcpR,inhibited
same,IC50,"[1]; read-out: IC50, V. coralliilyticus OCN008, luxCDABE reporter plasmid",2200 nM
same,IC50,"[1]; read-out: Inhibition (IC50) of the PluxC-gfp reporter, Vcoral OCN 008",1430 nM
same,IC50,"[1]; read-out: Inhibition (IC50) of the PluxC-gfp reporter, Vcoral OCN 014",2370 nM
same,Inhibition of OpaR in E. coli bioassay,OpaR,inhibited
same,DNA binding to LuxR,LuxR,did not alter DNA binding
same,Growth rate or growth yield,V. vulnificus,did not alter growth rate or growth yield
same,Inhibition of LuxR in the E. coli bioassay (in words),V. campbellii LuxR; GFP and mCherry reporters,most potent
same,Time after addition at which GFP production was blocked,V. campbellii LuxR; addition to the culture,120 min
same,Duration for which block of GFP production was maintained,V. campbellii LuxR; longest timepoint tested,≥ 16 h
same,IC50,V. campbellii LuxR; read-out: IC50 in the bioassay (approximate),1000 to 2000 nM
same,Growth rate or growth yield,V. campbellii,did not alter growth rate or growth yield
same,Protease activity of wild-type strain,[2],significantly reduced protease activity
same,Ka,SmcR,4.85e+06 M⁻¹
same,ΔG,SmcR,-9.092 kcal/mol
same,ΔH,SmcR,-33.963 kcal/mol
same,ΔS,SmcR,−348.97 J/mol · K
same,−TΔS,SmcR,24.869 kcal/mol
same,Kd,"SmcR; 25° C., read-out: Kd",227 nM
same,ΔG,SmcR; listed as PTSP,-9.08 kcal/mol
same,Kd,SmcR; read-out: Dissociation constant (Kd),230 nM

# From patent US20230257373A1, “QUORUM SENSING INHIBITORS AND METHODS OF USE” (priority 2020, published 2023)
